Measurements reported in patent US20240116986A1, “FUSION PEPTIDES CONTAINING DIMERIC ALPHA-HELICES, PEPTIDE-MOLECULARCONJUGATES CONTAINING THE SAME AND NUCLEIC ACID DELIVERY COMPOSITIONSCONTAINING THE SAME” (Artprobio Co., Ltd., priority 2022, published 2024).

Assays:
[1] = test system: linear double-stranded DNA (dsDNA) (7528 base pairs); assay: EMSA of nanostructure formation with dsDNA; assay type: binding
Method: (§1) When a nanostructure was formed through self-assembly by reacting a peptide-molecule conjugate (SAB) with a nucleic acid material (dsDNA or mRNA), agarose gel EMSA was conducted to measure their interactions, binding ratio, stability, etc.
For this, a pTWIN1 plasmid DNA vector was purchased from New England BioLabs (Ipswich, USA), genetically recombined to express a specific protein (Rev), and then linearized with a BamH1 restriction enzyme purchased from the same company to prepare a linear double-stranded DNA (dsDNA) (7528 base pairs). The peptide-molecule conjugates of Examples 1-3 (SAB1 to SAB3) were dispersed in distilled water to prepare 20 μM aqueous solutions. The SAB1 to SAB3 aqueous solutions (20 μM, 50 μL) were sonicated for at least 5 minutes and then immediately added to the dsDNA solution (200 μL). […] A SAB2/dsDNA nanostructure was prepared by incubating the mixture overnight. Then, after centrifuging at 16,100 g for 30 minutes, the nanostructure was resuspended in deionized water. After washing twice, the nanostructure was analyzed by TEM and EMSA.

EGFP mRNA = assay: EMSA of nanostructure formation with EGFP mRNA; assay type: binding; conditions: EMSA; mRNA concentration fixed; incubated overnight
Method: as §1
First, the nucleic acid material of a fixed concentration (100 fmol mRNA) was reacted with the peptide-molecule conjugate (SAB) of various concentrations. Immediately before mixing with the nucleic acid material, the peptide-molecule conjugate (SAB) was sonicated for 5 minutes to prevent self-aggregation. The sonicated peptide-molecule conjugate (SAB, 5 μL) was added to the nucleic acid material ([…]) and a nanostructure was prepared by adding distilled water. The sample was prepared by snap cooling. Specifically, after heating at 70° C. for 10 minutes and snap-cooling on ice, the prepared sample was stored at room temperature. The stored sample was mixed with 2 μL of 60% glycerol. Electrophoresis was performed at 100 V for 60 minutes on 0.8% agarose gel using 1×TBE. The band was observed after staining with SYBR™ Gold nucleic acid gel stain (Invitrogen, Waltham, USA).
After sonicating the peptide-molecule conjugate (SAB-gn, n=1 to 6) aqueous solution for 5 minutes, it was immediately mixed with an EGFP mRNA (200 μL) solution. […] An […] nanostructure was prepared as follows by mixing the peptide-molecule conjugate (SAB-gn, n=1 to 6) with the EGFP mRNA. […] The EGFP mRNA and the peptide-molecule conjugate (SAB-gn, n=1 to 6) were mixed at a charge ratio (+/−) of 0, 0.008, 0.016, 0.031, 0.063, 0.125, 0.25, 0.5, 1, 2, 4, 8, 16, 32 or 50.
After incubating the mixture solution overnight and centrifuging at 16,100 g for 30 minutes, the mixture was resuspended in deionized water. After washing twice, the resulting nanostructure was analyzed by EMSA.
After incubating the mixture solution overnight and centrifuging at 16,100 g for 30 minutes, the mixture was resuspended in deionized water.
After heating the mixed solution for 10 minutes at 70° C., it was immediately snap-cooled on ice. RiboRuler Low Range RNA Ladder and RiboRuler High Range RNA Ladder (Thermo Scientific, Waltham, USA) were used on the two lanes on the left side of agarose gel in order to identify the relative locations of the EGFP mRNA bands. The bands of the RiboRuler Low Range RNA Ladder correspond to 1000, 800, 600, 400, 300, 200 and 100 bases, from top to bottom, and the bands of the RiboRuler High Range RNA Ladder correspond to 6000, 4000, 3000, 2000, 1500, 1000, 500 and 200 bases, from top to bottom. Then, the mixtures with charge ratios (+/−) of 0, 0.031, 0.063, 0.125, 0.25, 0.5, 1, 2, 4, 8 and 16 were loaded in sequence.
After heating the mixed solution for 10 minutes at 70° C., it was immediately snap-cooled on ice. RiboRuler High Range RNA Ladder (Thermo Scientific, Waltham, USA) was used on the left side of agarose gel in order to identify the relative locations of the EGFP mRNA bands. The bands of the RiboRuler High Range RNA Ladder correspond to 6000, 4000, 3000, 2000, 1500, 1000, 500 and 200 bases, from top to bottom. Then, the samples were loaded with charge ratios (+/−) of 00, 0.063, 0.125, 0.25, 0.5, 1, 2, 4, 8, 16 and 32 in sequence.

[2] = Coating of gold nanoparticles (TEM); conditions: citrate-modified AuNP aqueous solution
Method: Colloidal gold was prepared by reducing HAuCl4 with sodium citrate. 50 mL of a 0.01% HAuCl4 (0.243 mM) aqueous solution was boiled vigorously while stirring in a round-bottom flask equipped with a reflux condenser. Then, 10 mL of a 0.1% sodium citrate aqueous solution (3.4 mM) was added to the boiling HAuCl4 solution. The color of the solution turned from yellow to deep purple and then to wine red within 3 minutes. The mixture was boiled further for 10 minutes and cooled to room temperature while continuously stirring overnight. The concentration of the colloidal gold was determined with a spectrophotometer.
It was investigated whether the gold nanoparticles (AuNP) prepared above are coated with the peptide-molecule conjugates prepared in Examples 1-3 (SAB1 to SAB3). First, the peptide-molecule conjugates of Examples 1-3 (SAB1 to SAB3) were dispersed in distilled water to prepare 20 μM aqueous solutions, respectively. After sonicating the SAB1 to SAB3 aqueous solutions (20 μM, 50 μL) for at least 5 minutes, they were immediately added to the AuNP solution (200 μL), respectively. […] After washing twice, the solution was analyzed by CD and TEM.

## Ac-(PEG8)-AELAALEAELAALE-(Ahx)2-K-(Ahx)2-KLAALKAKLAALKAG-(PEG8)-NH2 [SAB2]
[1]
  nanostructure formation with dsDNA: best result
[1]; dsDNA concentration fixed
  charge ratio (+/−) from which delay of EMSA band was observed: 0.031
  charge ratio at which SAB2/dsDNA nanostructure was prepared through self-assembly: 0.5
EGFP mRNA
  +/− (optimum charge ratio of EGFP mRNA and conjugate showing completely delayed electrophoretic mobility): 30
[2]
  dispersibility of coated gold nanoparticles: precipitates were formed due to aggregation of the gold nanoparticles
